# Source: patent publication US11358969B2, “Indole AHR inhibitors and uses thereof” (Ikena Oncology, Inc., priority 2017, dated 2022)
# Molecular target: T1, AHR (UniProt P35869)
# T1 construct: IC50
# T1 sequence (P35869 1-848): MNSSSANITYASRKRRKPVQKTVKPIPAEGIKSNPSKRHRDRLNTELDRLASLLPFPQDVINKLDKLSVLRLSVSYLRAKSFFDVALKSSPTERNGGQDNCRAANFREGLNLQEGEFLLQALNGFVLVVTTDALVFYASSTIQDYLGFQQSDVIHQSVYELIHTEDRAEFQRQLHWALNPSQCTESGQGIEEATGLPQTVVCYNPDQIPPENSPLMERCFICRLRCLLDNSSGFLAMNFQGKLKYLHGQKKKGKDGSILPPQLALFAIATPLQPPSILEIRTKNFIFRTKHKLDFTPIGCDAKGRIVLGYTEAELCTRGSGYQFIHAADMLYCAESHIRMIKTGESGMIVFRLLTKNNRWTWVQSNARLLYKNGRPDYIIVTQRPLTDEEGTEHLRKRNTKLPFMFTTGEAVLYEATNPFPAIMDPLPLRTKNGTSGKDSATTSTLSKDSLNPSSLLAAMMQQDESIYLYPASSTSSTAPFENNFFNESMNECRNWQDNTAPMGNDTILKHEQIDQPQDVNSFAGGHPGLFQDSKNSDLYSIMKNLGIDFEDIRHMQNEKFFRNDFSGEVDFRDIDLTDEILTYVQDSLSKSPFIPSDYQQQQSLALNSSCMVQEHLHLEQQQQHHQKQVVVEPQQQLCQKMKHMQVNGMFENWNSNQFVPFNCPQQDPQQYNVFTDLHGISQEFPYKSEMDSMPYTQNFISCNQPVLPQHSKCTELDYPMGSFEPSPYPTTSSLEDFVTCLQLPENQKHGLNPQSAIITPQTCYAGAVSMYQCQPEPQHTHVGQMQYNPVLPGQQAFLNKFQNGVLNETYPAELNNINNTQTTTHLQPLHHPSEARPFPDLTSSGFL
# Experiment: DRE-Luciferase Reporter Assay (Alternate Method) (Example 1B)
# Assay type: cell-based, murine or human
# Details: cell line and AHR activating ligand not specified
row,IC50 [nM],SMILES
1,500 to 1000,"Cc1cnn2c(NCCc3cc[nH]n3)cc(-c3cncc(F)c3)nc12 [I-180, 5-(5-Fluoro-3-pyridyl)-3-methyl-N-[2-(1H-pyrazol-3-yl)ethyl]pyrazolo[1,5-a]pyrimidin-7-amine]"
2,> 1500,CC(C)c1cnn2c(NC3CC3c3ccc(O)cc3)cc(-c3cncc(F)c3)nc12 (stereo not drawn) [I-181]
3,> 1500,CNC(=O)C(Cc1c[nH]c2ccccc12)Nc1cc(-c2cncc(F)c2)nc2c(C)cnn12 (stereo not drawn) [I-182]
4,> 1500,O=C(O)c1cnn2c(NCCc3c[nH]c4ccccc34)cc(-c3cncc(F)c3)nc12 [I-183]
5,> 1500,Cc1cnn2c(OCCc3c[nH]c4ccccc34)cc(-c3cncc(F)c3)nc12 [I-184]
6,> 1500,Cc1cnn2c(N[C@@H](CO)Cc3c[nH]c4ccccc34)cc(-c3cncc(F)c3)nc12 [I-185]
7,500 to 1000,"Cc1cnn2c(NCCc3c[nH]c4cccnc34)nc(-c3cncc(F)c3)nc12 [I-186, 2-(5-Fluoro-3-pyridyl)-8-methyl-N-[2-(1H-pyrrolo[3,2-b]pyridin-3-yl)ethyl]pyrazolo[1,5-a][1,3,5]triazin-4-amine]"
8,> 1500,Cc1cnn2c(N[C@H](Cc3c[nH]c4ccccc34)C(=O)N(C)C)cc(-c3cncc(F)c3)nc12 [I-187a]
9,> 1500,"Cc1cnn2c(N[C@@H](Cc3c[nH]c4ccccc34)C(=O)N(C)C)cc(-c3cncc(F)c3)nc12 [I-187b, (2S)-2-[[5-(5-Fluoro-3-pyridyl)-3-methyl-pyrazolo[1,5-a]pyrimidin-7-yl]amino]-3-(1H-indol-3-yl)-N,N-dimethyl-propanamide]"
10,> 1500,CNC(=O)[C@@H](Cc1c[nH]c2ccccc12)Nc1cc(-c2cncc(F)c2)nc2c(C)cnn12 [I-189]
11,> 1500,Cc1cnn2c(N[C@H](Cc3c[nH]c4ccccc34)C(N)=O)cc(-c3cncc(F)c3)nc12 [I-190a]
12,> 1500,Cc1cnn2c(NC(Cc3c[nH]c4ccccc34)C(N)=O)cc(-c3cncc(F)c3)nc12 (stereo not drawn) [I-190b]
13,500 to 1000,"Fc1cncc(-c2cc(NCCc3c[nH]c4cccnc34)n3ncc(Br)c3n2)c1 [I-192, 3-Bromo-5-(5-fluoro-3-pyridyl)-N-[2-(1H-pyrrolo[3,2-b]pyridin-3-yl)ethyl]pyrazolo[1,5-a]pyrimidin-7-amine]"
14,> 1500,Cc1cnn2c(NCCc3ccnc(O)c3)cc(-c3cncc(F)c3)nc12 [I-193]
15,> 1500,Cc1cnn2c(NCCc3ccc(O)nc3)cc(-c3cncc(F)c3)nc12 [I-194]
16,> 1500,"Cc1cnn2c(NCCc3ccc(NS(C)(=O)=O)cc3)cc(-c3cncc(F)c3)nc12 [I-195, N-[4-[2-[[5-(5-Fluoro-3-pyridyl)-3-methyl-pyrazolo[1,5-a]pyrimidin-7-yl]amino]ethyl]phenyl]methanesulfonamide]"
17,< 500,"OCc1cnn2c(NCCc3c[nH]c4ccccc34)cc(-c3cncc(F)c3)nc12 [I-197, [5-(5-Fluoro-3-pyridyl)-7-[2-(1H-indol-3-yl)ethylamino]pyrazolo[1,5-a]pyrimidin-3-yl]methanol]"
18,500 to 1000,"C[C@H](O)c1cnn2c(N[C@@H]3CCc4[nH]c5ccccc5c4C3)cc(-c3cncc(F)c3)nc12 [I-198b, (1S)-1-[5-(5-fluoro-3-pyridyl)-7-[[(3R)-2,3,4,9-tetrahydro-1H-carbazol-3-yl]amino]pyrazolo[1,5-a]pyrimidin-3-yl]ethanol]"

row,IC50 [nM],SMILES
1,< 500,"CN(C)c1cnn2c(N[C@@H]3Cc4ccc(O)cc4C3)cc(-c3cncc(F)c3)nc12 [I-204a, (2R)-2-[[3-(dimethylamino)-5-(5-fluoro-3-pyridyl)pyrazolo[1,5-a]pyrimidin-7-yl]amino]indan-5-ol]"
2,> 1500,CC(=O)Nc1ccc(CCNc2cc(-c3cncc(F)c3)nc3c(C)cnn23)cc1 [I-206]
3,> 1500,Cc1cnn2c(NCCc3c[nH]cn3)cc(-c3cncc(F)c3)nc12 [I-207]
4,1000 to 1500,"Cc1cnn2c(NCCc3cccc(O)c3)cc(-c3cncc(F)c3)nc12 [I-210, 3-[2-[[5-(5-fluoro-3-pyridyl)-3-methyl-pyrazolo[1,5-a]pyrimidin-7-yl]amino]ethyl]phenol]"
5,> 1500,"Cc1cnn2c(NCCc3ccc(N)cc3)cc(-c3cncc(F)c3)nc12 [I-211, N-[2-(4-Aminophenyl)ethyl]-5-(5-fluoro-3-pyridyl)-3-methyl-pyrazolo[1,5-a]pyrimidin-7-amine]"
6,> 1500,CC(C)c1cnn2c(N[C@H]3CCc4[nH]c5c(F)cccc5c4C3)cc(-c3cncc(F)c3)nc12 [I-212]
7,< 500,"Cc1cnn2c(NCCc3ccc(O)cc3)cc(-c3cncc(F)c3)nc12 [I-213, 4-[2-[[5-(5-fluoro-3-pyridyl)-3-methyl-pyrazolo[1,5-a]pyrimidin-7-yl]amino]ethyl]phenol]"
8,> 1500,"Cc1cnn2c(NCCc3c[nH]c4ccc(O)cc34)cc(-c3cncc(F)c3)nc12 [I-215, 3-[2-[[5-(5-Fluoro-3-pyridyl)-3-methyl-pyrazolo[1,5-a]pyrimidin-7-yl]amino]ethyl]-1H-indol-5-ol]"
9,500 to 1000,"Cc1cnn2c(N[C@@H]3CCc4[nH]c5c(F)cccc5c4C3)cc(-c3cncc(F)c3)nc12 [I-216a, (3R)-8-Fluoro-N-[5-(5-fluoro-3-pyridyl)-3-methyl-pyrazolo[1,5-a]pyrimidin-7-yl]-2,3,4,9-tetrahydro-1H-carbazol-3-amine]"
10,> 1500,Cc1cnn2c(N[C@H]3CCc4[nH]c5c(F)cccc5c4C3)cc(-c3cncc(F)c3)nc12 [I-216b]
11,< 500,"Cc1cnn2c(NCCc3ccccc3)cc(-c3cncc(F)c3)nc12 [I-218, 5-(5-fluoro-3-pyridyl)-3-methyl-N-(2-phenylethyl)pyrazolo[1,5-a]pyrimidin-7-amine]"
12,< 500,"CC(C)c1cnn2c(N[C@H]3Cc4ccc(O)cc4C3)cc(-c3cncc(F)c3)nc12 [I-220, (2S)-2-[[5-(5-fluoro-3-pyridyl)-3-isopropyl-pyrazolo[1,5-a]pyrimidin-7-yl]amino]indan-5-ol]"
13,> 1500,CC(C)c1cnn2c(NC3CCc4[nH]c5c(F)cccc5c4C3)cc(-c3cncc(F)c3)nc12 (stereo not drawn) [I-221]
14,< 500,"Cc1[nH]c2c(F)cccc2c1CCNc1cc(-c2cncc(F)c2)nc2c(C(=O)N3CCOCC3)cnn12 [I-225, [7-[2-(7-Fluoro-2-methyl-1H-indol-3-yl)ethylamino]-5-(5-fluoro-3-pyridyl)pyrazolo[1,5-a]pyrimidin-3-yl]-morpholino-methanone]"
15,< 500,"Fc1cncc(-c2cc(NCCc3c[nH]c4ccccc34)n3ncc(C4CCCO4)c3n2)c1 (stereo not drawn) [I-226, 5-(5-Fluoro-3-pyridyl)-N-[2-(1H-indol-3-yl)ethyl]-3-tetrahydrofuran-2-yl-pyrazolo[1,5-a]pyrimidin-7-amine]"
16,< 500,"CC(C)c1cnn2c(NCCc3c[nH]c4ccccc34)cc(-c3cccc4c3OCO4)nc12 [I-227, 5-(1,3-Benzodioxol-4-yl)-N-[2-(1H-indol-3-yl)ethyl]-3-isopropyl-pyrazolo[1,5-a]pyrimidin-7-amine]"
17,> 1500,CC(C)c1cnn2c(NC3CCc4[nH]c5ccccc5c4C3)cc(-c3cccc4c3OCO4)nc12 (stereo not drawn) [I-228]
18,> 1500,"CC(C)c1cnn2c(N[C@@H]3CCc4[nH]c5ccccc5c4C3)cc(-c3cncnc3)nc12 [I-229, (3R)—N-(3-Isopropyl-5-pyrimidin-5-yl-pyrazolo[1,5-a]pyrimidin-7-yl)-2,3,4,9-tetrahydro-1H-carbazol-3-amine]"
